Measured values taken from US11865126B2, “Method for treating anxiety disorders, headache disorders, and eating disorders with psilocybin” (priority 2019, dated 2024).

Test system: healthy subjects
Assay: Pictorial Empathy Test (PET)
Type: in vivo, human
Protocol: In some embodiments, the Pictorial Empathy Test (PET) is utilized to evaluate the effect of psilocybin on affective empathy.
The following list of outcome measures are non-exhaustive. • a. The short-term change from Baseline (Day −1 [Visit 2]) to Day 7 (Visit 5) in cognitive measures of attention, spatial and working memory and executive function was measured by a composite score of the CANTAB Panel (Spatial Working Memory [SWM], Rapid Visual Information Processing [RVP], Paired Associates Learning [PAL]). • b. The short-term change from Baseline (Day −1 [Visit 2]) to Day 7 (Visit 5) in Social Cognition Panel scales (Pictorial Empathy Test [PET], Reading the Mind in the Eyes Test [RMET], Toronto Empathy Questionnaire [TEQ], Social Value Orientation [SVO], Scale of Social Responsibility [SSR]). • c. The change from Baseline (Day −1 [Visit 2]) to Day 28 (Visit 6) in cognitive measures of attention, spatial and working memory and executive function as measured by a composite score of the CANTAB Panel (SWM, RVP, PAL). • d. The long-term change from Baseline (Day −1 [Visit 2]) to Day 84 (Visit 7) in Social Cognition Panel scales (PET, RMET, TEQ, SVO, SSR). • e. Dose-related differences between cognitive effects of psilocybin at Baseline (Day −1 [Visit 2]), Day 7 (Visit 5) and Day 28 (Visit 6), as measured by a composite score of the CANTAB Panel (SWM, RVP, PAL). • f. Dose-related differences between psychological effects of psilocybin at Baseline (Day −1 [Visit 2]), Day 7 (Visit 5) and Day 84 (Visit 7), as measured by Social Cognition Panel scales (PET, RMET, TEQ, SVO, SSR). • g. Differences in cognitive effects of psilocybin between psilocybin-naïve and experienced subjects at Baseline (Day −1 [Visit 2]), Day 7 (Visit 5) and Day 28 (Visit 6), as measured by a composite score of the CANTAB Panel (SWM, RVP, PAL). • h. Differences in Positive and Negative Affect Schedule (PANAS) after study drug administration on Day 0 (Visit 3). • i. Differences between psilocybin and placebo in the Emotion Recognition Test (ERT), Intra-Extra Dimensional Set Shift (IED), One Touch Stockings (OTS), Verbal Fluency and Digit Span Forward at Day 7 (Visit 5). • j. A composite score of the CANTAB Panel, including the following tests: • i. Spatial Working Memory (SWM) (performed at Visit 2, Visit 5, and Visit 6). • ii. Rapid Visual Information Processing (RVP) (performed at Visit 2, Visit 5, and Visit 6). • iii. Paired Associates Learning (PAL) (performed at Visit 2, Visit 5, and Visit 6). • k. Cognitive Flexibility Panel • i. Emotion Recognition Task (ERT) (performed at Visit 5). • ii. Intra-Extra Dimensional Set Shift (IED) (performed at Visit 5). • iii. One Touch Stockings (OTS) (performed at Visit 5). • iv. Verbal Fluency (performed at Visit 5). • v. Digit Span Forward (performed at Visit 5). • l. Five Dimension Altered States of Consciousness questionnaire (5D-ASC) (performed at Visit 3). • m. PANAS (performed at Visit 2 and Visit 3). • n. NEO-Five Factor Inventory (NEO-FFI) (performed at Visit 2, Visit 5, and Visit 7). • o. Symptom Checklist-90 item (SCL-90) (performed at Visit 2, Visit 5, and Visit 7). • p. Life Changes Inventory (LCI): The LCI measures changes in attitudes and values after near-death experiences often used to evaluate personal transformation following spiritually oriented experiences and practices. (performed at Visit 5 and Visit 7). • q. Social Cognition Panel scales • i. Pictorial Empathy Test (PET) (performed at Visit 2, Visit 5, and Visit 7). • ii. Reading the Mind in the Eyes Test (RMET) (performed at Visit 2, Visit 5, and Visit 7). • iii. Social Value Orientation (SVO) (performed at Visit 2, Visit 5, and Visit 7). • iv. Toronto Empathy Questionnaire (TEQ) (performed at Visit 2, Visit 5, and Visit 7). • v. Scale of Social Responsibility (SSR) (performed at Visit 2, Visit 5, and Visit 7). • r. Sheehan Suicidality Tracking Scale (SSTS) • s. Mini International Neuropsychiatric Interview (MINI). • t. […]

Compound: CN(C)CCc1c[nH]c2cccc(OP(=O)(O)O)c12 [psilocybin]
- PET change from baseline, LS mean difference Psilocybin 10 mg - Placebo (Day 7, MMRM): −0.1
- PET change from baseline, LS mean difference Psilocybin 25 mg - Placebo (Day 7, MMRM): 0.2
- PET change from baseline, LS mean difference Psilocybin 25 mg-10 mg (Day 7, MMRM): 0.3
- PET change from baseline, LS mean difference Psilocybin 10 mg - Placebo (Day 84, MMRM): −0.1
- PET change from baseline, LS mean difference Psilocybin 25 mg - Placebo (Day 84, MMRM): 0.1
- PET change from baseline, LS mean difference Psilocybin 25 mg-10 mg (Day 84, MMRM): 0.3
